Source: publication PMC12480555 (Scientific Reports, 2025)

Assays:
CT26-induced tumors [1] = assay: Colon cancer model, tumor weight and size after 21 days; details: intravenous every three days
MTT cytotoxicity assay = format: cell-based; details: human, HFF cells
[2] = Blood parameters in colon cancer model
CT26-induced tumors [3] = assay: Tumor histology; details: tumor tissue, day 21
[4] = Kidney histology in colon cancer model; details: kidney tissue, day 21

O=c1[nH]cc(F)c(=O)[nH]1 [Free 5FU, 5-Fluorouracil]
Mean tumor size ± standard deviation (CT26-induced tumors [1]): 11.0 ± 2.0 mm | Mean tumor weight ± standard deviation (CT26-induced tumors [1]): 0.98 ± 0.36 g | viability at 24 h, 0.2 mg/mL (MTT cytotoxicity assay): 99.5% | viability at 24 h, 0.5 mg/mL (MTT cytotoxicity assay): 87.9% | viability at 24 h, 1 mg/mL (MTT cytotoxicity assay): 85.9% | viability at 24 h, 1.5 mg/mL (MTT cytotoxicity assay): 75.9% | viability at 24 h, 2 mg/mL (MTT cytotoxicity assay): 75.1% | viability at 48 h, 0.2 mg/mL (MTT cytotoxicity assay): 104% | viability at 48 h, 0.5 mg/mL (MTT cytotoxicity assay): 94.1% | viability at 48 h, 1 mg/mL (MTT cytotoxicity assay): 79.4% | viability at 48 h, 1.5 mg/mL (MTT cytotoxicity assay): 74.7% | viability at 48 h, 2 mg/mL (MTT cytotoxicity assay): 65.1% | Red Blood Cell Count ± SD ([2]; Day 21): 4.2 ± 0.3 ×10⁶ cells/µL | White Blood Cell Count ± SD ([2]; Day 21): 10.0 ± 1.5 ×10³ cells/µL | Hemoglobin Level ± SD ([2]; Day 21, listed as 5-FU): 9.0 ± 0.8 g/dL | Hemoglobin Level ± SD ([2]; Day 21, listed as free 5-FU): 9.0 g/dL | Hemoglobin Level ± SD ([2]; Treatment start): 12.8 ± 1.2 g/dL | Red Blood Cell Count ± SD ([2]; Treatment start): 5.6 ± 0.5 ×10⁶ cells/µL | White Blood Cell Count ± SD ([2]; Treatment start): 8.3 ± 1.1 ×10³ cells/µL | Number of Apoptotic Cells (per field of view) ± Standard Deviation (CT26-induced tumors [3]): 8.0 ± 1.0 per field of view | Other Histopathology Changes (CT26-induced tumors [3]): Mild necrotic changes and inflammation | Percentage of Necrosis ± Standard Deviation (CT26-induced tumors [3]): 18.0 ± 4.0% | Tumor Differentiation Grade (1 to 3) ± Standard Deviation (CT26-induced tumors [3]): 2.0 ± 0.3 | renal complications (kidney histology) [4]: Most renal complications occurred in this group
